Results from patent US9944602B2, “Piperidinone herbicides” (E. I. DU PONT DE NEMOURS AND COMPANY, priority 2014, dated 2018).

Columns and labels:
rice (Oryza sativa) [1] = test: Test B flooded paddy test rice; format: in vivo; conditions: Oryza sativa, Table B, Flood, 250 g ai/ha, scale 0 to 100, read-out: Plant response rating
Method in brief: (§1)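 Test pots carrying 2-leaf-stage seedlings were flooded to 3 cm above the soil surface when treated. Compound went directly into the standing water. Plants stayed in the greenhouse at that depth for 13 to 15 d before visual comparison with controls.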

[2] = tested on: foxtail, giant (giant foxtail, Setaria faberii); test: Test A postemergence foxtail, giant; format: in vivo; conditions: Setaria faberi, post-emergence, 240 h, 0 to 100 scale, 0 is no effect, 100 is complete control, read-out: Plant response rating, Foxtail, Giant
Method in brief: (§2)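 Directed soil spray at planting gives preemergence data; foliar application to one- to two-leaf plants gives postemergence data. Response is visual injury relative to untreated controls about 10 d after treatment, scored 0–100.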

[3] = tested on: sedge, umbrella (small-flower umbrella sedge, Cyperus difformis); test: Test B flooded paddy test sedge, umbrella; format: in vivo; conditions: Cyperus difformis, Table B, Flood, 250 g ai/ha, scale 0 to 100, read-out: Plant response rating
Method in brief: as §1

rice (Oryza sativa) [4] = test: Test C flooded paddy test rice; format: in vivo; conditions: Table C, Flood, 1000 g ai/ha, scale 0 to 100
Method in brief: (§3)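 Scores express visual response relative to untreated controls, 0 meaning no effect and 100 complete control, assessed 13 to 15 d after treatment in the greenhouse. Compound went into water flooded 3 cm above soil around 2-leaf plants.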

[5] = tested on: barnyardgrass (Echinochloa crus-galli); test: Test A preemergence barnyardgrass; format: in vivo; conditions: 0 to 100 scale
Method in brief: as §2

[6] = tested on: pigweed (Amaranthus retroflexus); test: Test A preemergence pigweed; format: in vivo; conditions: Amaranthus retroflexus, pre-emergence, 240 h, 0 to 100 scale, 0 no effect, 100 complete control, read-out: Pigweed plant response rating
Method in brief: as §2

[7] = tested on: foxtail, giant (giant foxtail, Setaria faberii); test: Test A preemergence foxtail, giant; format: in vivo; conditions: Setaria faberi, pre-emergence, 240 h, 0 to 100 scale, 0 no effect, 100 complete control, read-out: Foxtail, Giant plant response rating
Method in brief: as §2

[8] = tested on: wheat (Triticum aestivum); test: Test A postemergence wheat; format: in vivo; conditions: Triticum aestivum, post-emergence, 240 h, 0 to 100 scale, 0 is no effect, 100 is complete control, read-out: Plant response rating, Wheat
Method in brief: as §2

[9] = tested on: barnyardgrass (Echinochloa crus-galli); test: Test C flooded paddy test barnyardgrass; format: in vivo; conditions: Table C, Flood, 1000 g ai/ha, scale 0 to 100
Method in brief: as §3

corn (Zea mays) = test: Test A postemergence corn; format: in vivo; conditions: Zea mays, post-emergence, 240 h, 0 to 100 scale, 0 is no effect, 100 is complete control
Method in brief: as §2

[10] = tested on: ducksalad (Heteranthera limosa); test: Test B flooded paddy test ducksalad; format: in vivo; conditions: Heteranthera limosa, Table B, Flood, 250 g ai/ha, scale 0 to 100, read-out: Plant response rating
Method in brief: as §1

[11] = tested on: barnyardgrass (Echinochloa crus-galli); test: Test B flooded paddy test barnyardgrass; format: in vivo; conditions: Echinochloa crus-galli, Table B, Flood, 250 g ai/ha, scale 0 to 100, read-out: Plant response rating
Method in brief: as §1

[12] = tested on: sedge, umbrella (small-flower umbrella sedge, Cyperus difformis); test: Test C flooded paddy test sedge, umbrella; format: in vivo; conditions: Table C, Flood, 1000 g ai/ha, scale 0 to 100
Method in brief: as §3

[13] = tested on: ducksalad (Heteranthera limosa); test: Test C flooded paddy test ducksalad; format: in vivo; conditions: Table C, Flood, 1000 g ai/ha, scale 0 to 100
Method in brief: as §3

[14] = tested on: pigweed (Amaranthus retroflexus); test: Test A postemergence pigweed; format: in vivo; conditions: Amaranthus retroflexus, post-emergence, 240 h, 0 to 100 scale, 0 is no effect, 100 is complete control, read-out: Plant response rating, Pigweed
Method in brief: as §2

[15] = tested on: barnyardgrass (Echinochloa crus-galli); test: Test A postemergence barnyardgrass; format: in vivo; conditions: Echinochloa crus-galli, post-emergence, 240 h, 0 to 100 scale, 0 is no effect, 100 is complete control, read-out: Plant response rating, Barnyardgrass
Method in brief: as §2

O=C1NCCC(c2cccc(C(F)(F)F)c2)C1C(=O)Nc1ccccc1C(F)(F)F (stereo not shown) [Compound 10, 2-oxo-N-[2-(trifluoromethyl)phenyl)-4-[3-(trifluoromethyl)phenyl]-3-piperidinecarboxamide]
plant injury at 250 g/ha (rice (Oryza sativa) [1]): 10%
pest or weed control at 125 g/ha ([2]; 125 g ai/ha): 40%
pest or weed control at 500 g/ha ([2]; 500 g ai/ha): 70%
pest or weed control at 250 g/ha [3]: 0%
Plant response rating (rice (Oryza sativa) [4]): 10
Plant response rating, Barnyardgrass ([5]; 500 g ai/ha, 0 is no effect, 100 is complete control): 90
pest or weed control at 125 g/ha ([5]; Echinochloa crus-galli, pre-emergence, 240 h, 125 g ai/ha, 0 no effect, 100 complete control, read-out: Barnyardgrass plant response rating): 60%
pest or weed control at 125 g/ha ([6]; 125 g ai/ha): 0%
pest or weed control at 500 g/ha ([6]; 500 g ai/ha): 0%
pest or weed control at 125 g/ha ([7]; 125 g ai/ha): 90%
pest or weed control at 500 g/ha ([7]; 500 g ai/ha): 90%
plant injury at 125 g/ha ([8]; 125 g ai/ha): 0%
plant injury at 500 g/ha ([8]; 500 g ai/ha): 0%
Plant response rating [9]: 65
Corn plant response rating (crop injury, 0 = no effect, 100 = complete kill) at 125 g/ha (corn (Zea mays); 125 g ai/ha): 0%
Corn plant response rating (crop injury, 0 = no effect, 100 = complete kill) at 500 g/ha (corn (Zea mays); 500 g ai/ha): 0%
pest or weed control at 250 g/ha [10]: 40%
pest or weed control at 250 g/ha [11]: 0%
melting point: 292 to 295 °C
Plant response rating [12]: 0
Plant response rating [13]: 85
pest or weed control at 125 g/ha ([14]; 125 g ai/ha): 0%
pest or weed control at 500 g/ha ([14]; 500 g ai/ha): 0%
pest or weed control at 125 g/ha ([15]; 125 g ai/ha): 80%
pest or weed control at 500 g/ha ([15]; 500 g ai/ha): 90%
